From US11535584B2, “Homovanillinic acid ester, in particular for creating a warm and/or pungent sensation” (SYMRISE AG, priority 2014, dated 2022)
Read-outs that look alike come from different tables or passages of the source.

Assays:
tasters [1] = test: Isointensity of esters compared to nonivamide and a capsicum extract (Example 6); format: in vivo; conditions: 10 ppm of the ester in 5% sugar solution
Procedure: The substance to be tasted was dissolved in ethanol and the ethanolic solution was then diluted with 5% sugar solution (final concentration: 10 ppm). As reference, capsicum extract with 1,000,000 SHU (0.3-10 ppm) and nonivamide (0.1-1 ppm) were prepared in 5% sugar solution in increasing concentration. For the tasting, the oral cavity was rinsed and spat out by 4 tasters with approx. 5 ml of the solution to be tasted and assessed against the reference series.

tasters [2] = test: Tasting of esters of homovanillinic acid: pungency score and profile (Example 5); format: in vivo; conditions: 25 ppm in 5% sugar solution; for Pungency assessed: scale of 1 (very weak)-9 (very strong), 4 tasters
Procedure: The substance to be tasted was dissolved in ethanol and the ethanolic solution was then diluted with 5% sugar solution (final concentration: 25 ppm). For the tasting, the oral cavity was rinsed and spat out by 4 tasters with approx. 5 ml of the sugar solution.

[3] = Warming effect compared to vanillyl butyl ether (Example 11); format: in vivo; conditions: 4-10 ppm in 5% sugar solution vs 10 ppm vanillyl butyl ether
Excerpt: Test solutions with 4-10 ppm ester of homovanillic acid were sensorially evaluated in a 5% sugar solution and were compared to a test solution of 10 ppm vanillyl butyl ether.

rat eyes = conditions: Szolcsanyi, Jancso-Gabor 1975; cited from earlier work
tasters [4] = test: Tasting of esters of homovanillinic acid: pungency score and profile (Example 5); format: in vivo; conditions: for Pungency assessed: scale of 1 (very weak)-9 (very strong)
trained panelists = test: Time vs. intensity pungency profile compared with nonivamide (Example 8); format: in vivo; conditions: 25 ppm vs 0.5 ppm nonivamide in 5% sugar solution
Procedure: To obtain a time vs. intensity profile, trained panelists (n=8-10) rinsed their oral cavity with a gulp of a sample solution (5 ml of a 5% sugar solution). Then, the intensity of the characteristic pungency was assessed at defined time intervals on the basis of a scale without fixed graduation.

testers [5] = test: Sensorial assessment of combinations with grains of paradise extract, nonivamide and capsicum extract (Example 9); format: in vivo; conditions: for Effect in combination of nonivamide, capsicum extract and ester: versus combinations without esters (examples 26* and 28*)
[6] = EFSA / Scientific Committee on Food opinion 2002; cited from earlier work
testers [7] = test: Increase in the alcohol pungency of an ethanolic solution (Example 10); format: in vivo
Procedure: On the basis of a 5% sugar solution with 20% ethanol (example 1), different concentrations (10-100 ppm) of ethyl-2-(4-hydroxy-3-methoxyphenyl) acetate (17), polymethoxylated flavone PMF 60 (Miritz) and combinations (10-50 ppm) of ethyl-2-(4-hydroxy-3-methoxyphenyl) acetate (17) with polymethoxylated flavone PMF 60 (Miritz) (20 ppm) were compared with a second base solution (5% sugar solution with 40% ethanol) (Tab. 4). To this end, 5 testers rinsed their mouth with about 5 ml of the relevant solution to be tasted, spat out the solution and assessed the taste sensation.

[8] = Tasting and sensorial assessment of isolated ethyl homovanillate (17) (Example 2); format: in vivo
Procedure: The primary reaction mixture is pre-fractionated using medium-pressure liquid chromatography (MPLC) (column material: Lewatit VP OC 1064; water/ethanol 3/1; v/v). Subsequently, further separation is carried out via preparative high-pressure liquid chromatography (pHPLC) (column: Phenomenex Luna C18 5μ 150×21.2 mm, flow rate 30 ml/min, detection 210 nm) in the isocratic mode (63% H2O, 37% MeOH). Final isolation of ethyl homovanillate (17) is carried out via semi-preparative high-pressure liquid chromatography (sPHPLC) in the gradient mode (column: YMC Triart C18 5μ 250×10 mm; A: H2O; B: MeOH; 0 min 65% A, 35% B; 25 min 40% A, 60% B; 30 min 100% B; flow rate 3 ml/min; detection: 250 nm). The obtained ethyl homovanillate (17) was subsequently freeze-dried and tasted and sensorially assessed at a dosage of 100 ppm in 5% sugar solution, 0.5% salt solution, 500 ppm caffeine solution and water.

[9] = 50 and 100 ppm (examples 17 and 18)

CCCCCCOC(=O)Cc1ccc(O)c(OC)c1 [compound 21, Hexyl-2-(4-hydroxy-3-methoxyphenyl) acetate]
Concentration of capsicum extract with 1,000,000 SHU of comparable pungency (tasters [1]): ~8.5 ppm
Nonivamide concentration of comparable pungency (tasters [1]): ~0.5 ppm
Profile (tasters [2]): clearly pungent, slightly delayed effect, warming, relatively fast decrease in pungency
Pungency assessed (tasters [2]): 9

CCCOC(=O)Cc1ccc(O)c(OC)c1 [compound 18, Propyl-2-(4-hydroxy-3-methoxyphenyl) acetate]
Warming effect compared to vanillyl butyl ether [3]: long-lasting warming effect, but which occurred at a comparatively later time
Profile (tasters [2]): weak and delayed pungency, gradually warming, tingling
Pungency assessed (tasters [2]): 4-5
Pain sensation in rat eyes (rat eyes): active

CCCCCCCOC(=O)Cc1ccc(O)c(OC)c1 [compound 14, Heptyl-2-(4-hydroxy-3-methoxyphenyl) acetate]
Profile (tasters [4]): slightly delayed effect, burning, pungent, warming
Pungency assessed (tasters [4]): 3

CCCCOC(=O)Cc1ccc(O)c(OC)c1 [compound 19, Butyl-2-(4-hydroxy-3-methoxyphenyl) acetate]
Decrease in pungency compared with nonivamide (trained panelists): considerably faster decrease in pungency
Onset of the pungency compared with nonivamide (trained panelists; identical total intensity): faster onset of the pungency
Concentration of capsicum extract with 1,000,000 SHU of comparable pungency (tasters [1]): ~4.5 ppm
Nonivamide concentration of comparable pungency (tasters [1]): ~0.3 ppm
Warming effect compared to vanillyl butyl ether [3]: more marked warming effect
Profile (tasters [2]): immediate pungency, quick decrease
Pungency assessed (tasters [2]): 7
Intensification in combination with capsicum extract versus additive effect (testers [5]; 10 and 25 ppm with 2 or 5 ppm capsicum extract): the intensifications were more significant than just an additive effect
Effects in combination with capsicum extract (testers [5]; 10 and 25 ppm with 2 or 5 ppm capsicum extract (examples 19, 20, 24, 25)): the same effects were detected even at lower concentrations
Effect in combination of nonivamide, capsicum extract and ester (testers [5]): quicker decline in the pungency sensation as well as a warming effect

COc1cc(CC(=O)OCCCc2ccccc2)ccc1O [compound 22, 3-Phenylpropyl-2-(4-hydroxy-3-methoxyphenyl) acetate]
Profile (tasters [4]; 2 ppm in 5% sugar solution): delayed effect, pungent, warming, slightly tingling
Pungency assessed (tasters [4]; 2 ppm in 5% sugar solution): 5

COc1cc(CC(=O)OCC(C)C)ccc1O [compound 9, Isobutyl-2-(4-hydroxy-3-methoxyphenyl) acetate]
Warming effect compared to vanillyl butyl ether [3]: warming effect similar to vanillyl butyl ether, but which lasted for a longer period
Profile (tasters [2]): quick onset of pungency, warming, slightly biting pungency
Pungency assessed (tasters [2]): 4-5

COc1cc(CNC(=O)CCCC/C=C/C(C)C)ccc1O [capsaicin, N-(4-hydroxy-3-methoxybenzyl)-8-methyl-(6E)-nonenoic acid amide]
Evaluation of the genotoxic potential [6]: negative result

CCOC(=O)Cc1ccc(O)c(OC)c1 [compound 17, Ethyl-2-(4-hydroxy-3-methoxyphenyl) acetate]
Warming effect compared to vanillyl butyl ether [3]: milder warming effect
Profile (tasters [2]): slightly warming, somewhat pungent
Pungency assessed (tasters [2]): 1-2
Effect of combination with polymethoxylated flavone PMF 60 (testers [7]; 10-50 ppm with 20 ppm PMF 60 in 5% sugar solution with 20% ethanol (examples 7-9)): an increase of the burning sensation was additionally generated, and an extension of these effects was also achieved
Effect on taste sensation of base solution (testers [7]; 10 ppm in 5% sugar solution with 20% ethanol (example 2)): an increase and an extension of the burning sensation in the mouth
Effect on taste sensation of base solution (testers [7]; 20 ppm and 50 ppm in 5% sugar solution with 20% ethanol): additional pungency effect
Nasal effect of combination with PMF 60 (testers [7]; compared to 5% sugar solution with 40% ethanol): did not show any nasal effect
Sensorially preferred concentration in combination with PMF 60 (testers [7]; with 20 ppm PMF 60 in 5% sugar solution with 20% ethanol): 20-50 ppm
Taste description ([8]; 100 ppm in 0.5% salt solution): Pungent
Taste description ([8]; 100 ppm in 5% sugar solution): Pungent, warming
Taste description ([8]; 100 ppm in water): Pungent, stinging, slightly warming
Additional effect in combination with capsicum extract at all concentrations (testers [5]; 2 and 5 ppm capsicum extract with 1,000,000 SHU): pleasantly warming effect, which remained even after the pungency sensation receded
Effect on pungency in combination with grains of paradise extract (testers [5]; 10 and 25 ppm with 30 ppm grains of paradise extract, 5% sugar solution (examples 2 and 3)): faster onset of the pungency
Assessment of the pungency sensation in combination with 2 ppm capsicum extract (testers [5]; [9]): pleasant and not long-lasting
Effect on pungency in combination with 2 ppm capsicum extract with 1,000,000 SHU (testers [5]; [9]): same intensifying and faster onsetting effect
Effect on pungency in combination with 5 ppm capsicum extract with 1,000,000 SHU (testers [5]; 50 and 100 ppm (examples 22 and 23)): quick decline in the pungency
Onset of pungency in combination with nonivamide (testers [5]; 50 and 100 ppm with 0.2 or 0.5 ppm nonivamide): faster onset of the pungency
Intensification of pungency in combination with nonivamide (testers [5]; 50 and 100 ppm with 0.2 or 0.5 ppm nonivamide (examples 7, 8, 12, 13)): the pungency of nonivamide was intensified at both of the tested concentrations, wherein this intensification corresponded to more than just the additive effect
Intensification of the pungency, 2 ppm versus 5 ppm capsicum extract (testers [5]; combination with capsicum extract with 1,000,000 SHU): significantly higher with 2 ppm capsicum extract with 1,000,000 SHU than with 5 ppm
Effect in combination of nonivamide, capsicum extract and ester (testers [5]): quicker decline in the pungency sensation as well as a warming effect

CCC(C)OC(=O)Cc1ccc(O)c(OC)c1 (stereo not drawn) [compound 8, sec-Butyl-2-(4-hydroxy-3-methoxyphenyl) acetate]
Profile (tasters [2]): very delayed onset, tingling, mainly warming, gradually increasing pungency
Pungency assessed (tasters [2]): 3

COC(=O)Cc1ccc(O)c(OC)c1 [methyl ester of homovanillic acid]
Pain sensation in rat eyes (rat eyes): active

COc1cc(CC(=O)OC(C)C)ccc1O [compound 7, Isopropyl-2-(4-hydroxy-3-methoxyphenyl) acetate]
Profile (tasters [2]): Late onset, tingling, warming, pungent, somewhat delayed, not long-lasting, pleasant
Pungency assessed (tasters [2]): 3

CCCCCCCCOC(=O)Cc1ccc(O)c(OC)c1 [octyl-2-(4-hydroxy-3-methoxy-phenyl) acetate, reference compound]
Profile (tasters [2]): slow onset of pungency, late, delayed, greasy-pulpy secondary effect, burning
Pungency assessed (tasters [2]): 7
Pain sensation in rat eyes (rat eyes): active

CCCCCCCCCCOC(=O)Cc1ccc(O)c(OC)c1 [decyl-2-(4-hydroxy-3-methoxyphenyl) acetate, reference compound]
Profile (tasters [2]): weakly pungent, delayed, pear-like and greasy-pulpy secondary effect, throat burns more than the tongue
Pungency assessed (tasters [2]): 2

COc1cc(CC(=O)OC/C=C/c2ccccc2)ccc1O [compound 2, [(E)-Cinnamyl]-2-(4-hydroxy-3-methoxyphenyl) acetate]
Profile (tasters [4]): delayed effect, very pungent, slightly warming, somewhat mouthwatering
Pungency assessed (tasters [4]): 5-6

COc1cc(CC(=O)OCCCCc2ccccc2)ccc1O [compound 23, 4-Phenylbutyl-2-(4-hydroxy-3-methoxyphenyl) acetate]
Profile (tasters [4]; 2.5 ppm in 5% sugar solution): delayed effect, pungent, delayed warming, burning, slightly tingling
Pungency assessed (tasters [4]; 2.5 ppm in 5% sugar solution): 4-5
